These results are taken from US9624239B2, “Protein kinase inhibitors” (Pharmascience Inc., priority 2011, dated 2017).

Test [1] addresses T1, histidine tagged recombinant human full-length Bruton Agammaglobulinemia Tyrosine Kinase (Btk) (Homo sapiens, UniProt Q06187).
T1 construct: recombinant human full-length Bruton Agammaglobulinemia Tyrosine Kinase (Btk); histidine tag
Briefly: Btk kinase inhibition assay (fluorescence polarization, KinEASE FP Fluorescein Green). The format is biochemical. Particulars: 10 μM ATP, 250 μM substrate, 60 minutes, room temperature; Ki from IC50 by Cheng-Prusoff; read-out: ki50 (nM), Inhibition of Btk. The protocol:
(§1) Kinase Binding Btk and Lck Kinase Inhibition Assay
(§2) Fluorescence polarization-based kinase assays were performed in 384 well-plate format using histidine tagged recombinant human full-length Bruton Agammaglobulinemia Tyrosine Kinase (Btk) or histidine tagged recombinant Human Lymphocyte-Specific Protein Tyrosine Kinase (Lck) and a modified protocol of the KinEASE™ FP Fluorescein Green Assay supplied from Millipore. Kinase reaction were performed at room temperature for 60 minutes in presence of 250 μM substrate, 10 μM ATP and variable test article concentrations. The reaction was stopped with EDTA/kinease detection reagents and the polarization measured on a Tecan 500 instrument. From the dose-response curve obtained, the IC50 was calculated using Graph Pad Prisms® using a non-linear fit curve. The Km for ATP on each enzyme was experimentally determined and the Ki values calculated using the Cheng-Prusoff equation (see: Cheng Y, Prusoff W H. (1973) Relationship between the inhibition constant (K1) and the concentration of inhibitor which causes 50 percent inhibition (I50) of an enzymatic reaction”. Biochem Pharmacol 22 (23): 3099-108).
(§3) ki values are reported in Tables 2 and 3: • a—Less than 100 nM; b—less than 1000 nM; c—more than 1000 nM

Test [2] has as its target T2, histidine tagged recombinant Human Lymphocyte-Specific Protein Tyrosine Kinase (Lck) (Homo sapiens, UniProt P06239).
T2 construct: histidine tag
In words: Lck kinase inhibition assay (fluorescence polarization, KinEASE FP Fluorescein Green). Particulars: 10 μM ATP, 250 μM substrate, 60 minutes, room temperature; Ki from IC50 by Cheng-Prusoff. The format is biochemical. How it is done:
as §1, §2, §3
In general terms: In fluorescence polarisation assays a small probe gives low polarisation when free and higher when bound to something large.

Test [3] deals with mouse splenocytes. Briefly: Splenic cell proliferation assay (anti-IgM stimulated B cell proliferation, Cell Titer-Glo). Type of test: cell-based. The note with it: Splenocyte; CD1 mouse splenocytes, 1 h pre-treatment, 2.5 ug/ml anti-IgM F(ab')2 for 72 h; read-out: EC50 (nM), Inhibition of splenic cell proliferation. How it is done: Splenic Cell Proliferation Assay
Splenocytes were obtained from 6 week old male CD1 mice (Charles River Laboratories Inc.). Mouse spleens were manually disrupted in PBS and filtered using a 70 μm cell strainer followed by ammonium chloride red blood cell lysis. Cells were washed, resuspended in Splenocyte Medium (HyClone RPMI supplemented with 10% heat-inactivated FBS, 0.5× non-essential amino acids, 10 mM HEPES, 50 uM beta mercaptoethanol) and incubated at 37° C., 5% CO2 for 2 h to remove adherent cells. Suspension cells were seeded in 96 well plates at 50,000 cells per well and incubated at 37° C., 5% CO2 for 1 h. Splenocytes were pre-treated in triplicate with 10,000 nM curves of Formula 1 compounds for 1 h, followed by stimulation of B cell proliferation with 2.5 ug/ml anti-IgM F(ab′)2 (Jackson ImmunoResearch) for 72 h. Cell proliferation was measured by Cell Titer-Glo Luminescent Assay (Promega). EC50 values (50% proliferation in the presence of compound as compared to vehicle treated controls) were calculated from dose response compound curves using GraphPad Prism Software.
EC50 values are reported in Table 4: • a—Less than 100 nM; b—less than 1000 nM; c—more than 1000 nM

T2 sequence (P06239 whole entry): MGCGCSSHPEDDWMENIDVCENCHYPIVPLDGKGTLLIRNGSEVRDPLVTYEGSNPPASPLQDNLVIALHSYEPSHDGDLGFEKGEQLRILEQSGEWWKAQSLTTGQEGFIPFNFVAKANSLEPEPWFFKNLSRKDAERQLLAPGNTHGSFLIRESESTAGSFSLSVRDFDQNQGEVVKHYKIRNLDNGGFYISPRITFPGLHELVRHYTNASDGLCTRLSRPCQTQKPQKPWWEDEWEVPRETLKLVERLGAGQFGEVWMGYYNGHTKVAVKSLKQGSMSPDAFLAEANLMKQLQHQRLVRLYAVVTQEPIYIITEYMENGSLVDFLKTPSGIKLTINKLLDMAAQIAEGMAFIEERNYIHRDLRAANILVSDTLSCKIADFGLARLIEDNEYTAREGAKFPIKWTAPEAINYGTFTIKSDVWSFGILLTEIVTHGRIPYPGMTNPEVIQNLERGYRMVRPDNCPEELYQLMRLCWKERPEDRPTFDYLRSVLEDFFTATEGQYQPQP
T1 sequence (Q06187 whole entry): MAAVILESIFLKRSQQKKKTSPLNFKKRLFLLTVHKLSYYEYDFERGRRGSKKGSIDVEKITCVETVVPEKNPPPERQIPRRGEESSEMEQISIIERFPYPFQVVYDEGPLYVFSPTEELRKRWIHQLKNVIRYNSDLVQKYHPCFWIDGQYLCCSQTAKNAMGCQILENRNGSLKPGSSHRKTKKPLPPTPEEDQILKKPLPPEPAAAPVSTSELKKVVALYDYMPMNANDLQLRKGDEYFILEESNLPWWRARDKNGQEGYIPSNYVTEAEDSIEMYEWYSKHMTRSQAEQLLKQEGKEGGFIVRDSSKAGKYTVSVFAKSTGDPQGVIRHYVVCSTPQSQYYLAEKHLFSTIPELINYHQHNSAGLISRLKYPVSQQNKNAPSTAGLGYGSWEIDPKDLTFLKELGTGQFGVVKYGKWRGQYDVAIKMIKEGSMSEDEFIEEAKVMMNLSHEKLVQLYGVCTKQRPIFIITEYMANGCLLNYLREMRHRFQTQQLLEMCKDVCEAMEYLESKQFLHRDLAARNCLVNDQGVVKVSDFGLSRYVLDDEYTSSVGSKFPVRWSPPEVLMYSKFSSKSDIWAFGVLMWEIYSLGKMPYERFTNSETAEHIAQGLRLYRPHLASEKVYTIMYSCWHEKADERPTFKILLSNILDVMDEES

For `CC1OCc2c1c1ncnc(N)c1n2-c1ccc(Oc2cccc(C(F)(F)F)c2)cc1` (stereo not drawn) [Compound 29], the Ki in test [1] and in test [2] was below 1000 nM in each case. The EC50 in test [3] lay within 100 to 1000 nM.
Take `Nc1ncnc2c3c(n(-c4ccc(Oc5ccccc5)cc4)c12)COC3` [Compound 21]: the values for the Ki in test [1] and in test [2] were below 1000 nM and below 100 nM, respectively. The EC50 in test [3] was above 1000 nM.
On to `CC1OCc2c1c1ncnc(N)c1n2-c1ccc(Oc2cccc(C(N)=O)c2)cc1` (stereo not drawn) [Compound 38], for which the Ki in test [1] and in test [2] was above 1000 nM throughout. For the same compound, the EC50 in test [3] was above 1000 nM.
Consider `CCOc1cccc(Oc2ccc(-n3c4c(c5ncnc(N)c53)C(C)OC4)cc2)c1` (stereo not drawn) [Compound 41], for which the Ki in test [1] and in test [2] was below 100 nM in each case. Moreover, the EC50 in test [3] lay within 100 to 1000 nM.
Consider `CC1OCc2c1c1ncnc(N)c1n2-c1ccc(Oc2cccc(OCC3CCCCC3)c2)cc1` (stereo not drawn) [Compound 56], for which the Ki in test [1] and in test [2] was below 100 nM throughout. The EC50 in test [3] was above 1000 nM.
In the case of `CC1OCc2c1c1ncnc(N)c1n2-c1ccc(Oc2ccccc2C(N)=O)cc1` (stereo not drawn) [Compound 60], the Ki is above 1000 nM in test [1] and below 1000 nM in test [2]. The EC50 in test [3] is above 1000 nM.
Turning to `CCC1OCc2c1c1ncnc(N)c1n2-c1ccc(Oc2ccccc2)cc1` (stereo not drawn) [Compound 24], the Ki is below 1000 nM in test [1] and below 100 nM in test [2]. Besides, the EC50 in test [3] lay in the range of 100 to 1000 nM.
The matching figures for `CC1OCc2c1c1ncnc(N)c1n2-c1ccc(Oc2ccc(F)cc2)cc1` (stereo not drawn) [Compound 42]: above 1000 nM, below 1000 nM and above 1000 nM.
With `CC1OCc2c1c1ncnc(N)c1n2-c1ccc(Oc2cccc([N+](=O)[O-])c2)cc1` (stereo not drawn) [Compound 45], the Ki in test [1] is above 1000 nM; in test [2], below 1000 nM. In addition, in test [3], the EC50 is above 1000 nM.
Turning to `CC1OCc2c1c1ncnc(N)c1n2-c1ccc(Oc2cccc(OCC#N)c2)cc1` (stereo not drawn) [Compound 46], the Ki in test [1] and in test [2] was below 100 nM in each case. For the same compound, in test [3], the EC50 lay within 100 to 1000 nM.
Regarding `CC1OCc2c1c1ncnc(N)c1n2-c1ccc(Oc2ccccc2F)cc1` (stereo not drawn) [Compound 34], the Ki in test [1] and in test [2] was below 100 nM throughout. Further, the EC50 in test [3] is above 1000 nM.
Take `Nc1ncnc2c3c(n(-c4ccc(Oc5cccc(O)c5)cc4)c12)CCC3` [Compound 61]: the figures for the Ki in test [1] and in test [2] were above 1000 nM and below 100 nM, respectively. Further, the EC50 in test [3] is above 1000 nM.
As to `CCN1CCc2c(c3ncnc(N)c3n2-c2ccc(Oc3ccccc3)cc2)C1` [Compound 15], the Ki was above 1000 nM in test [1] and below 100 nM in test [2].
Consider `Nc1ncnc2c3c(n(-c4ccc(Oc5ccccc5)cc4)c12)CCCC3` [Compound 13], for which the Ki in test [1] and in test [2] was below 1000 nM each time. The EC50 in test [3] is above 1000 nM.
Regarding `CCN1Cc2c(n(-c3ccc(Oc4ccccc4)cc3)c3c(N)ncnc23)C1` [Compound 14], the values for the Ki in test [1] and in test [2] were above 1000 nM and below 1000 nM, respectively. The EC50 in test [3] is above 1000 nM.
Take `Nc1ncnc2c3c(n(-c4ccc(Oc5ccccc5)cc4)c12)COC3c1ccccc1` (stereo not drawn) [Compound 30]: the Ki was below 100 nM in test [1] and below 1000 nM in test [2]. In addition, the EC50 in test [3] is above 1000 nM.
The matching figures for `CC1OCc2c1c1ncnc(N)c1n2-c1ccc(Oc2ccccc2C(F)(F)F)cc1` (stereo not drawn) [Compound 32]: below 1000 nM, below 1000 nM and 100 to 1000 nM.
The matching figures for `CC1OCc2c1c1ncnc(N)c1n2-c1ccc(Oc2cccc(F)c2)cc1` (stereo not drawn) [Compound 35]: below 1000 nM, below 1000 nM and above 1000 nM.
The matching figures for `Nc1ncnc2c3c(n(-c4ccc(Oc5ccc(F)cc5)cc4)c12)CCC3` [Compound 2]: above 1000 nM, above 1000 nM and above 1000 nM.
Regarding `CC1OCc2c1c1ncnc(N)c1n2-c1ccc(Oc2cccc(OCc3cccnc3)c2)cc1` (stereo not drawn) [Compound 53], the Ki in test [1] and in test [2] was below 100 nM in each case. Further, in test [3], the EC50 lay within 100 to 1000 nM.
Turning to `CC1OCc2c1c1ncnc(N)c1n2-c1ccc(Oc2ccccc2C#N)cc1` (stereo not drawn) [Compound 58], the Ki in test [1] is below 1000 nM; in test [2], below 100 nM. In addition, the EC50 in test [3] is 100 to 1000 nM.
The matching figures for `Nc1ncnc2c3c(n(-c4ccc(Oc5ccc(Br)cc5)cc4)c12)CCC3` [Compound 3]: below 1000 nM, below 1000 nM and above 1000 nM.
In the case of `Nc1ncnc2c3c(n(-c4ccc(Cc5ccccc5)cc4)c12)CCC3` [Compound 22], the Ki in test [1] is above 1000 nM; in test [2] it was below 100 nM.
As for `Nc1ncnc2c3c(n(-c4ccc(Oc5ccccc5)cc4)c12)COC3CCCOc1ccccc1` (stereo not drawn) [Compound 36], the Ki in test [1] was above 1000 nM; in test [2], below 1000 nM. For the same compound, the EC50 in test [3] was above 1000 nM.
Regarding `COc1cc(F)cc(Oc2ccc(-n3c4c(c5ncnc(N)c53)C(C)OC4)cc2)c1` (stereo not drawn) [Compound 59], the Ki was below 1000 nM in test [1] and below 100 nM in test [2]. Moreover, in test [3], the EC50 is 100 to 1000 nM.
Regarding `Nc1ncnc2c3c(n(-c4ccc(Oc5ccccc5)cc4)c12)CCNC3` [Compound 8], the Ki was above 1000 nM in test [1] and below 1000 nM in test [2].
Take `CC1OCc2c1c1ncnc(N)c1n2-c1ccc(Oc2cccc(OCc3ccc(F)cc3)c2)cc1` (stereo not drawn) [Compound 49]: the Ki in test [1] and in test [2] was below 100 nM throughout. Also, the EC50 in test [3] fell in the range of 100 to 1000 nM.
With `CC1OCc2c1c1ncnc(N)c1n2-c1ccc(Oc2ccccc2)c(F)c1` (stereo not drawn) [Compound 40], the figures for the Ki in test [1] and in test [2] were below 1000 nM and below 100 nM, respectively. In test [3], the EC50 is 100 to 1000 nM.
`Nc1ncnc2c3c(n(-c4ccc(Oc5ccccc5)cc4)c12)CN(S(=O)(=O)c1ccccc1)C3` [Compound 9]: the Ki is above 1000 nM in test [1] and below 1000 nM in test [2].
As for `CC1OCc2c1c1ncnc(N)c1n2-c1ccc(Oc2cccc(NS(=O)(=O)c3ccccc3)c2)cc1` (stereo not drawn) [Compound 80], the Ki in test [1] is below 1000 nM. The EC50 in test [3] is above 1000 nM.
In the case of `Nc1ncnc2c3c(n(-c4ccc(Oc5ccccc5)cc4)c12)CN(C(=O)c1ccccc1)C3` [Compound 18], the Ki in test [1] was above 1000 nM; in test [2], below 1000 nM.
Turning to `CC1OCc2c1c1ncnc(N)c1n2-c1ccc(Oc2cccc(OCC3CCCC3)c2)cc1` (stereo not drawn) [Compound 140], the Ki in test [1] is below 1000 nM. Besides, in test [3], the EC50 was 100 to 1000 nM.
The matching figures for `N#Cc1ccccc1OCc1cccc(Oc2ccc(-n3c4c(c5ncnc(N)c53)COC4)cc2)c1` [Compound 142]: below 100 nM and 100 to 1000 nM.
The matching figures for `CC1OCc2c1c1ncnc(N)c1n2-c1ccc(Oc2cccc(OCc3cccc(F)c3)c2)cc1` (stereo not drawn) [Compound 99]: below 100 nM and 100 to 1000 nM.
The matching figures for `CC1OCc2c1c1ncnc(N)c1n2-c1ccc(Oc2cccc(OCC3CCOCC3)c2)cc1` (stereo not drawn) [Compound 67]: below 100 nM and above 1000 nM.
On to `Cc1nc(-c2cccc(Oc3ccc(-n4c5c(c6ncnc(N)c64)C(C)OC5)cc3)c2)cs1` (stereo not drawn) [Compound 90], for which the Ki in test [1] was below 100 nM. Besides, in test [3], the EC50 was in the range of 100 to 1000 nM.
Regarding `CC(=O)Nc1cccc(COc2cccc(Oc3ccc(-n4c5c(c6ncnc(N)c64)CCC5)cc3)c2)c1` [Compound 130], in test [1], the Ki is below 100 nM. Moreover, the EC50 in test [3] was 100 to 1000 nM.
